In patent US9428790B2, “Simultaneous measurement of thrombin generation and clot strength in plasma and whole blood” (SYNAPSE B.V., priority 2012, dated 2016):

Key:
Assay type in all cases: biochemical
fibrin polymerization = experiment: Clot strength (viscosity) in triggered platelet-poor plasma on rotary rheometer with Doolittle peptide; details: 0.5 mM up to 2 mM peptide, shear rate 300/s, 5 pM TF, 4 μM PL, FIG. 6 upper panel
Experimental: (§1) Blood was obtained through venipuncture (1 volume tri-sodium citrate 0.13M to 9 volumes blood). Free flow or minimal suction should be employed, and vacuum containers avoided. Platelet poor plasma (PPP) was obtained by centrifugation of blood twice at 2630 g for 10 min.
(§2) Recombinant relipidated tissue factor (rTF) not containing polybrene or Ca^++ was from Dade Behring (Marburg, Germany). For each experiment, a fresh mixture of Tissue Factor (TF) and phospholipids vesicles (PL) (Avanti, Alabaster, Ala., USA) was prepared, resulting in a final concentration of 5 pM TF and 4 μM PL in Hepes buffer (20 mM, pH 7.35) containing 5 mg/l BSA (Sigma, A-7030). Recombinant tissue plasminogen activator (tPA) was obtained from Boehringer Ingelheim GmbH, Germany as actylase™. […] Upon splitting by thrombin, it releases the fluorescent rhodamine (Rho), which is measured by a 470 nm excitation and a 520 emission filter set. […] The by plasmin released fluorescent 7-Amino-4-methylcoumarin (AMC) is measured by a 365 nm excitation and a 430 nm emission filter set. […]
(§3) Using a signal substrate with a fluorescent leaving group, thrombin generation was measured via a fluorescence detector. The strength of the formed fibrin clot was monitored by an oscillating or rotating measuring system of a specially designed rheometer (Physica MCR 301, Anton Paar Germany GmbH, Ostfildern). […]

thrombin generation = experiment: Thrombin generation (fluorogenic substrate, calibrated) in triggered platelet-poor plasma with Doolittle peptide; details: 0.5 mM up to 2 mM peptide, shear rate 300/s, FIG. 6 lower panel
Experimental: as §1
as §2, with “A-7030).” for “A-7030). Recombinant tissue plasminogen activator (tPA) was obtained from Boehringer Ingelheim GmbH, Germany as actylase™.”
The calibrator, α2M-Thrombin complex (α2MT), was prepared in house as previously described. The concentration of α2M-Thrombin is measured by its ability to hydrolyze the chromogenic substrate S2238. […] After adding bovine antithrombin and heparin (LEO) this material was ready for use as a thrombin calibrator.
Using a signal substrate with a fluorescent leaving group, thrombin generation was measured via a fluorescence detector. […]

plasmin = target: T1, plasmin (Homo sapiens, UniProt P00747); experiment: Plasmin generation (raw fluorescence, H-Ala-Leu-Lys-AMC) in tPA-triggered platelet-poor plasma; details: 100 U/ml tPA, rotation 300/s, FIG. 8 upper panel
T1 construct: from tissue; host or cells: platelet-poor plasma from citrated blood
Experimental: as §1
as §2, with “A-7030).” for “A-7030). Recombinant tissue plasminogen activator (tPA) was obtained from Boehringer Ingelheim GmbH, Germany as actylase™.”
A total of 700 μl (in case of plasma) or 800 μl (in case of blood) sample and substrate was added on the thermostated sample holder at 37° C. of the rheometer. […] Immediately after addition of the FluCa, the viscosity (or Torque in case of oscillation of the measuring system) and fluorescence were measured every 10 seconds and every second at 470/520 nm respectively. […]

fibrin = experiment: Clot strength (viscosity) in tPA-triggered platelet-poor plasma on rotary rheometer; details: 100 U/ml tPA, rotation 300/s, FIG. 8 lower panel
Experimental: as §1, §2, §3

fibrinolysis = experiment: Clot strength (torque, oscillation mode) in triggered whole blood with tPA; details: 300 U/ml tPA, oscillation 10 Hz, angle 1°, inset
Experimental: as §1, §2, §3

T1 sequence (P00747 581-810 limits assumed): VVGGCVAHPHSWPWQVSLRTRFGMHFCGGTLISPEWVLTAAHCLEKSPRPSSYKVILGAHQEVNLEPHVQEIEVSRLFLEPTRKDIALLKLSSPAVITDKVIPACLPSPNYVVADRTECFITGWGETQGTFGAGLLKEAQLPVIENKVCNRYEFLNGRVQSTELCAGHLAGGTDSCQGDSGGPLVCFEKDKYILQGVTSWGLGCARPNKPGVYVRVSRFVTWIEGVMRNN
T1 sequence (P00747 97-580 partner limits assumed): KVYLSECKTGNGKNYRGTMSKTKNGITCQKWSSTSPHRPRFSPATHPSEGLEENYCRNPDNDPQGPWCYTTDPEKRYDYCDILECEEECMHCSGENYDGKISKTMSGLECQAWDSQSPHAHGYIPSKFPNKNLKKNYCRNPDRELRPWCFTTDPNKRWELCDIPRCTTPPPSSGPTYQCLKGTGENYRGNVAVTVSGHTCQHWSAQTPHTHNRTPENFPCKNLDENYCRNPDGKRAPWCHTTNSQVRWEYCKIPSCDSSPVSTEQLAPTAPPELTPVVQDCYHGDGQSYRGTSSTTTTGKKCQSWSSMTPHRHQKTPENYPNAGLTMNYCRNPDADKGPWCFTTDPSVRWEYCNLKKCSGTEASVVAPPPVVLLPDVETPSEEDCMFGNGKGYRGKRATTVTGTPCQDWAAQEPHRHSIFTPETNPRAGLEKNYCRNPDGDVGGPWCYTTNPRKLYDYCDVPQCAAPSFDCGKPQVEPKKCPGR

plasmin generation (raw fluorescence) (plasmin)	Substance	viscosity of the sample compared to the control sample (fibrin polymerization)	effect on the thrombin generation (thrombin generation)	viscosity (degradation of fibrin) (fibrin)	fibrinolysis (torque) (fibrinolysis)
	Gly-Pro-Arg-Pro (GPRP; printed: Gly-Pro-Arg-Pro) [Doolittle peptide]	significantly decreased the viscosity	minimal		
activation of plasmin	tPA: Recombinant tissue plasminogen activator (tPA) obtained from Boehringer Ingelheim GmbH as actylase™			decrease in viscosity	fibrinolysis could be followed
